In patent US9102835B2, “Methods of using dyes in association with nucleic acid staining or detection and associated technology” (Biotium, Inc., priority 2005, dated 2015):
Entries after “also recorded” stand apart in the source; their conditions may differ.

Columns and labels:
[1] = test system: 1 kb Plus DNA Latter in agarose gel; assay: Post-DNA gel staining
Procedure: Serial two-fold dilutions of 1 kb Plus DNA Latter from Invitrogen Co. (Carlsbad, Calif.) were made and the resulting DNA samples were loaded onto an agarose gel in four lanes from left to right with a loading of 200 ng, 100 ng, 50 ng, and 25 ng per lane, respectively. The DNA samples were electrophoretically separated in 1×TBE buffer using a standard protocol. The nucleic acid sample was loaded onto the gel from in four columns from left to right with a loading of 200 ng, 100 ng, 50 ng, and 25 ng per lane, respectively, and electrophoretically separated in 1×TBE buffer using a standard protocol. A stock solution of a Dye No. 20 of Table 1 in DMF at about 12 mM concentration was prepared. […] The agarose gel was submerged in the staining solution for approximately 30 minutes to stain the gel. The resulting gel was then viewed using a UV transilluminator with 254 nm excitation.
A similar procedure was followed to prepare post gel staining solutions of Dye No. 29 of Table 1, except that Dye No. 29 was used in place of Dye No. 20 and at various conditions, as now described. […] Identical DNA samples were prepared, loaded onto three separate agarose gels, and separated via standard gel electrophoreses, in the manner described above. Each of the three separate gels was then stained by immersion in a different one of the resulting gels for about 30 minutes. […]

[2] = Hydrolytic, thermal and storage stability in water, electrophoresis buffers and pre-cast gels; type: physicochemical
[3] = Stability in TBE buffer, optical density at absorption maximum over 24 hours; type: physicochemical; details: 1.2 μM in 1×TBE buffer, room temperature, monitored at 500 nm
Procedure: SYBR Gold 10,000× in DMSO from Molecular Probes, Inc. (Eugene, Oreg.) was diluted to 1× working concentration, as recommended by the manufacturer, in 1×TBE buffer. A stock solution of Dye No. 35 of Table 1 in DMSO (12 mM) was diluted to 1.2 μM in 1×TBE buffer. The optical density associated with each of the solutions was monitored at the absorption maximum of the dye (488 nm for SYBR Gold and 500 nm for Dye No. 35) over the course of a 24-hour period at room temperature.

[4] = test system: Salmonella typhimurium bacteria, strain TA98; assay: Mutagenicity assay, Muta-ChromoPlate test kit (based on the Ames Test, bacterial reverse mutation); details: for Mutagenicity relative to the negative control: in the absence of S9 extract; for Positive wells: with S9 extract (rat liver); for Positive wells / Positive wells, Exp 1 / Positive wells, Exp 2: positive wells out of 36, TA98; for Positive wells, Exp 1 / Positive wells, Exp 2: without S9 extract
Excerpt: The test kit is based on the Ames Test, a bacterial reverse mutation test. The test employs a mutant strain, or several strains, of Salmonella typhimurium bacteria, carrying mutation(s) in the operon coding for histidine biosynthesis. When the bacteria are exposed to mutagenic agents under certain conditions, reverse mutation from amino acid (histidine) auxotrophy to prototrophy occurs. […] S9 extract is a rat liver extract that comprises various metabolic enzymes. The tests associated with the presence of S9 extract were undertaken to give information on the potential genotoxicity of the metabolized dyes. […] Each single test was carried out using 36 wells and the number of positive wells out of each 36 wells was taken as an indicator of the relative mutagenicity levels of the dye under the test conditions. As a negative control, bacteria were also incubated in the absence of a dye.
Mutagenicity assays were carried out using a Muta-ChromoPlate test kit from EBPI (Brampton, Ontario, Canada). […] A solution without a dye (zero dose level) was assayed in the absence and presence of S9 extract, as a control or negative control. S9 extract is a rat liver extract that comprises various metabolic enzymes. The tests associated with the presence of S9 extract were undertaken to provide information on the potential genotoxicity of the metabolized dyes. […] Each single test was carried out using 36 wells and the number of positive wells out of each 36 wells was taken as an indicator of the relative mutagenicity levels of the dye under the test conditions.

[5] = test system: 1 kb Plus DNA Latter in agarose gel; assay: Pre-cast DNA gel staining; details: 1.2 μM in TBE versus EB 1.3 μM; 300 nm UV
Procedure: An agarose gel solution (1% agarose) was prepared following a standard protocol (J. Roskams et al., Lab Ref: A Handbook of Recipes, Reagents, and Other Reference Tools for Use at the Bench, Cold Spring Harbor Laboratory Press, Cold Spring Harbor, N.Y., 2002). A stock solution of a Dye No. 35 (ET-27) of Table 1 in DMF at 12 mM concentration was prepared. An aliquot of the stock solution of dye was added to the gel solution, while it was hot, resulting in an effective working concentration of the dye of about 1.2 μM. The resulting solution was thoroughly mixed by swirling. The resulting gel solution was poured onto a gel slab to cast the gel. Serial two-fold dilutions of 1 kb Plus DNA Latter from Invitrogen Co. (Carlsbad, Calif.) were made and the resulting DNA samples were loaded onto the gel in four lanes from left to right with a loading of 200 ng, 100 ng, 50 ng, and 25 ng per lane, respectively. The DNA samples were electrophoretically separated in 1×TBE buffer using a standard protocol. The resulting gel was then viewed using a UV transilluminator with 300 nm excitation. The same procedure was followed using a stock solution of EB at about 0.5 μg/mL (or 1.3 μM) in DMF in place of the stock solution of Dye No. 35 of Table 1.
It should be noted that other dyes described herein may be prepared and employed in the manner described in this Example 49, or a similar manner.

[6] = test system: Salmonella typhimurium bacteria, strain TA98; details: cited from earlier work
[7] = cited from earlier work
[8] = pre-cast gel prepared with the dye

In the case of `C[n+]1c(C=C2C=CN(CCCCCC(=O)NCCCOCCOCCOCCCNC(=O)CCCCCN3C=CC(=Cc4sc5ccccc5[n+]4C)c4ccccc43)c3ccccc32)sc2ccccc21` [Dye No. 29, TOTO-13], the “Sensitivity in post-DNA gel staining versus SYBR Safe and SYBR Green I” value ([1]; dye 3.6 μM, SYBR dyes 1× in TBE, 200-25 ng DNA per lane, 254-nm UV transilluminator) was “substantially more sensitive than SYBR Safe and is as sensitive as SYBR Green I”.

For `Nc1ccc2c(c1)c(-c1ccccc1)[n+](CCCCCC(=O)NCCCOCCOCCOCCCNC(=O)CCCCC[n+]1c(-c3ccccc3)c3cc(N)ccc3c3ccc(N)cc31)c1cc(N)ccc21` [Dye No. 35, ET-27], the “Time heated in a microwave oven without decomposition” value ([2]; dye in TBE buffer) was 10 min, the “Storage time of pre-cast gel without loss of performance” value [2, 8] was 3 months and the “Time stable in an electrophoresis buffer, such as TBE buffer” value ([2]; room temperature) was 6 months. The “Absorbance over the 24-hour period” value [3] was “relatively constant”, the “Toxicity and mutagenicity, overall statement” value ([4]; comparison of Dye No. 35 with EB) was “relatively low in toxicity and mutagenicity; also recorded: may be less mutagenic than EB” and the “Mutagenicity relative to the negative control” value [4] was “very weak mutagenicity”. For the same compound, the Positive wells ([4]; 0.25 nmole) was 0, the Positive wells ([4]; 2.5 nmoles) was 9 and the Positive wells ([4]; 25 nmoles) was 0. The “Positive wells, Exp 1” value ([4]; 0.25 nmole) was 2, the “Positive wells, Exp 2” value ([4]; 0.25 nmole) was 0 and the “Positive wells, Exp 1” value ([4]; 2.5 nmoles) was 1. The “Positive wells, Exp 2” value ([4]; 2.5 nmoles) was 3, the “Positive wells, Exp 1” value ([4]; 25 nmoles) was 1 and the “Positive wells, Exp 2” value ([4]; 25 nmoles) was 3. The “Sensitivity with respect to low level DNA, relative to EB” value [5] was “more sensitive with respect to low level DNA” and the “Sensitivity with respect to shorter DNA fragments, relative to EB” value [5] was “more sensitive with respect to shorter DNA fragments”.

In the case of `CC[n+]1c(-c2ccccc2)c2cc(N)ccc2c2ccc(N)cc21` [EB, ethidium bromide, reference compound], the “Frame shift mutagenicity in Ames Test (known)” value [6] is given as “known frame shift mutagen”, the “Mutagenicity relative to the negative control” value [4] is given as “very weak mutagenicity” and the “Mutagenicity” value ([4]; in the presence of S9 extract) is given as “significantly greater mutagenicity than Dye No. 35”. For the same compound, the Positive wells ([4]; 0.25 nmole) was 22, the Positive wells ([4]; 2.5 nmoles) was 17 and the Positive wells ([4]; 25 nmoles) was 16. For the same compound, the “Positive wells, Exp 1” value ([4]; 0.25 nmole) was 0, the “Positive wells, Exp 2” value ([4]; 0.25 nmole) was 0 and the “Positive wells, Exp 1” value ([4]; 2.5 nmoles) was 0. The “Positive wells, Exp 2” value ([4]; 2.5 nmoles) was 3, the “Positive wells, Exp 1” value ([4]; 25 nmoles) was 0 and the “Positive wells, Exp 2” value ([4]; 25 nmoles) was 3.

For `CCCN(CCCN(C)C)c1cc(/C=C2/Sc3ccccc3N2C)c2ccccc2[n+]1-c1ccccc1` [SYBR Green I], the “DNA band brightness in post-DNA gel staining” value ([1]; staining solution in 1×TBE that lacked NaCl) is listed as “relatively weaker or less bright DNA bands overall”, the “Hydrolytic stability” value ([7]; aqueous solution, particularly buffers having a pH of 7 or more) is listed as “hydrolytically unstable” and the “Time within which pre-cast gel is used before losing utility” value [7, 8] is listed as 24 h.
